Assay results published in US20260177556A1, “PROXIMITY-BASED LABELING OF SIALYLATED GLYCOPROTEINS” (THE TRUSTEES OF PRINCETON UNIVERSITY, priority 2022, published 2026).

Key:
Format in all cases: cell-based
[1] = system: HEK293T, HeLa or primary cervical epithelial cells; experiment: Confocal microscopy of biotinylation after glycomap experiment; conditions: after Ac4ManNAz, 5 μM reagent, irradiation in presence of biotin-diazirine
Procedure: Cells (HEK293T, HeLa or primary cervical epithelial cells) (approx. 2×10^4 cells) were incubated in poly-lysine coated 8 well chamber slides in complete DMEM (200 μL) containing Ac4ManNAz (100 μM) at 37° C. for 48 hours. The cells were washed with DPBS (3×200 μL) and then incubated in complete DMEM (200 μL) containing DBCO-iridium (5 μM) or DBCO-biotin (5 μM) at 37° C. for 24 hours. The cells were washed with DPBS (3×200 μL) and irradiated in DMEM (no phenol-red, 200 μL) containing biotin-diazirine (250 μM) at room temperature for 20 minutes in the biophotoreactor (blue LEDs). The cells were washed with DPBS (3×200 μL) and fixed with prewarmed 4% paraformaldehyde (200 μL) at room temperature for 30 min. The cells were washed with DPBS (2×200 μL) and blocked with 3% BSA in DPBS (200 μL) at room temperature for 1 hour. The blocking buffer was replaced with fresh 3% BSA in DPBS (200 μL) containing Hoechst (1:1000), and Streptavidin-AlexaFluor 555 conjugate (1:1000). The cells were stained in the dark at room temperature for 1 hour and then stored in the dark at 4° C. The cells were imaged on a NIKON A1R-SI microscope (Nikon Instruments, Inc., Melville, NY) at 20× magnification. The images were processed with Fiji-ImageJ. Images shown are representative of the multiple cross-sectional images taken during each session.

[2] = system: sialylated cell-surface glycoproteins of HeLa cells; experiment: Glycomap labeling efficiency by streptavidin western blot densitometry; conditions: for Experiment/control: ratio of densitometry readouts
Procedure: HeLa cells (approx. 0.4×10^6 cells) were incubated in 6 well dishes in complete DMEM (2 mL) containing Ac4ManNAz (100 μM) at 37° C. for 72 hours. The cells were washed with DPBS (3×1 mL) and then incubated in complete DMEM (2 mL) containing DBCO-iridium (5 μM) or DBCO-biotin (5 μM) at 37° C. for 24 hours. The cells were washed with DPBS (3×1 mL) and irradiated in DMEM (no phenol-red, 200 μL) containing biotin-diazirine (250 μM) at room temperature for 20 minutes in the biophotoreactor (blue LEDs). The cells were washed with DPBS (3×1 mL), scraped in DPBS (1 mL), and transferred to 1.5 mL Eppendorf tubes. The cells were pelleted at 400×G for 5 minutes and resuspended in Ripa lysis buffer (500 μL). The cells were lysed by sonication (bioruptor) at 4° C. for 10 minutes (20 cycles, 15 sec on 15 sec off at 100% power). The protein concentration was normalized by BCA assay and the lysate was analyzed by Western blot (20 μg of protein per lane, 12% gel, 150 V). The gel was transferred via iBlot 2 to an NC membrane Following transfer, the membrane was immersed in Odyssey Blocking Buffer (Li-Cor, 927-50000) and incubated at room temperature for 1 hour. The blocking buffer was replaced with fresh blocking buffer (10 mL) containing anti-Actin antibody (10 μL) and the membrane was rocked for 1 hour. The buffer was decanted, and the membranes were washed with 1×TBST (4×5 min) and water (3×5 sec). […]
Based on the Western blot results shown in FIG. 2B the efficiency of labeling via Glycomap can be calculated using densitometry. […]
The whole calculation is listed below: • Densitometry readout DBCO-Iridium full experiment: 108′442 • Densitometry readout DBCO-Iridium control: 6′164 • Experiment/control: 17.6 • Densitometry readout DBCO-Biotin full experiment: 158′335 • Densitometry readout DBCO-Biotin control: 5′937 • Experiment/control: 26.7 • Comparison: 17.6/26.7=0.7 tags per catalyst.

[3] = system: HeLa cells; experiment: Colorimetric zinc assay
Procedure: The zinc assay was purchased from Abcam (ab102507), and the experiment was performed according to the procedure below, adapted from the supplier's instructions.
In transparent 10 cm dishes, HeLa cells were grown in complete medium (DMEM, supplemented with 10% FBS) in presence (×3) or absence (×3) of VC-sialidase (20 mU/mL medium) for 96 hours. The medium was exchanged every 24 hours and fresh sialidase was added at those timepoints. After 96 hours, the medium was removed and DPBS (5 mL) was added. The cells were scraped, transferred to 15 mL conical tubes, and pelleted at 400×g for 5 minutes. The supernatant was removed, and the cells were lysed in 50 μL EDTA-free lysis buffer lysed by sonication (bioruptor) at 4° C. for 10 minutes.
The lysate was clarified at 18′000×g for 15 minutes and analyzed by BCA assay. 30 µL of the cell lysate was transferred to a 1.5 mL Eppendorf tube containing 30 μL of 7% TCA to precipitate proteins. The mixture was clarified at 18′000×g for 5 minutes and […] of the resulting solution were used for the zinc detection assay.

[4] = system: HeLa cells; experiment: Mass spectrometry-based metabolomic quantification of sialidase-treated cells; conditions: sialidase-treated vs untreated HeLa cells, 72 hours
Procedure: In transparent 10 cm dishes (×6), HeLa cells were grown for 72 hours in 5 mL complete DMEM supplemented with 10% FBS in presence or absence of neuraminidase (20 U/mL). After 72 hours, the cells were washed with DPBS (3×5 mL) and incubated with TrypLE (1 mL) for 15 minutes at 37° C. The cells were transferred to 15 mL conical tubes using 4 mL DPBS to wash the plates. The cells were pelleted at 500×G for 4 minutes and resuspended in 1 mL DPBS. The cells were counted, and 500′000 cells/experiment were transferred to 1.5 mL Eppendorf tubes. The cells were pelleted (500×g for 4 min), the supernatant removed, and the cells were lysed with ice cold 80% MeOH (60 μL) for 30 minutes at 0° C. The cell lysate was clarified by centrifugation at 20′000×G for 25 minutes and the lysates were transferred to new 0.5 mL Eppendorf tubes and stored at −80° C. until mass spectrometry analysis.
HPLC-grade water, methanol, and acetonitrile were obtained from Thermo Fisher Scientific. Supernatant sample was thawed at room temperature and kept at 4° C. in an autosampler. Samples were analyzed using a Q Exactive Plus mass spectrometer coupled to Vanquish UHPLC system (Thermo Fisher Scientific). LC separation was achieved using a XBridge BEH Amide column (2.1 mm×150 mm, 2.5-μm particle size, 130-A pore size; Waters, Milford, MA, USA) using a gradient of solvent A (20 mM ammonium acetate+20 mM ammonium hydroxide in 95:5 water/acetonitrile [pH 9.45]) and solvent B (acetonitrile). Flow rate was […]. The gradient was 0 min, 90% B; 2 min, 90% B; 3 min, 75%; 7 min, 75% B; 8 min, 70%, 9 min, 70% B; 10 min, 50% B; 12 min, 50% B; 13 min, 25% B; 14 min, 25% B; 16 min, 0% B, 20.5 min, 0% B; 21 min, 90% B; 25 min, 90% B. The column temperature was 25° C., and the injection volume was 5 μL. The mass spectrometer is operated in full scan mode with separate runs in positive mode and negative mode covering m/z 70-1000, with resolution 140,000 at m/z 200, AGC target 5E6, maximum injection time 200 ms.
Data analyses were performed using El-Maven and the metabolites identified with an in-house library using authentic standards.^3 Metabolite signal intensity were then further processed in Excel (median correction) and Graphpad Prism (transformation, t-test, and volcano plot generation).

Compound | biotinylation by confocal microscopy [1] | Experiment/control [2] | Zinc concentration (nmol zinc/mg of protein-free lysate) ([3]; HeLa cells, VC-sialidase 20 mU/mL medium, 96 hours, single replicates) | zinc level vs untreated cells ([3]; sialidase-treated vs untreated HeLa cells) | level of cytidine diphosphate choline (CDP-choline) [4] | level of cytidine diphosphate ethanolamine (CDP-Etn) [4] | level of phosphate ethanolamine (P-Etn) [4] | most metabolite levels [4] | tags per catalyst (labeling efficiency) ([2]; HeLa cells, Ac4ManNAz 100 μM, streptavidin blot densitometry, relative to DBCO-biotin)
O=C(CCCC[C@@H]1SC[C@@H]2NC(=O)N[C@@H]21)NCC(C(=O)NCCC(=O)N1Cc2ccccc2C#Cc2ccccc21)S(=O)(=O)O (some centres unmarked) [DBCO-biotin, DBCO-Sulfo-Link-biotin, reference compound] | strong biotinylation | 26.7 |  |  |  |  |  |  | 
VC-Sia: sialidase isolated from Vibrio cholerae, cleaves α2,3-, α2,6-, or α2,8-linked sialic acids |  |  | 1.4 nmol/mg | significantly higher | significantly increased | significantly increased | significantly increased | minimally affected | 
[Ir(dCO2HdFCF3ppy)2(bpy-dbco) [DBCO-iridium] | strong biotinylation | 17.6 |  |  |  |  |  |  | 0.7 tags per catalyst
